Test results from patent US20250051347A1, “BIFUNCTIONAL CHIMERIC HETEROCYCLIC COMPOUND AND USE THEREOF AS ANDROGEN RECEPTOR DEGRADER” (Hinova Pharmaceuticals, Inc., priority 2021, published 2025).

These molecules were tested against T1, androgen receptor (AR) splicing variant AR-v7 (Homo sapiens, UniProt P10275) (assay: Degradation activity on androgen receptor splicing variant AR-v7 in 22RV1 cells (ELISA)). Conditions: AR-v7 degradation in 22RV1 cells, 48 h, class symbols.
T1 construct: The degradation activity of compounds on AR-v7 in 22RV1 cells; host or cells: 22RV1 cells
T1 sequence (P10275 1-644 isoform P10275-3): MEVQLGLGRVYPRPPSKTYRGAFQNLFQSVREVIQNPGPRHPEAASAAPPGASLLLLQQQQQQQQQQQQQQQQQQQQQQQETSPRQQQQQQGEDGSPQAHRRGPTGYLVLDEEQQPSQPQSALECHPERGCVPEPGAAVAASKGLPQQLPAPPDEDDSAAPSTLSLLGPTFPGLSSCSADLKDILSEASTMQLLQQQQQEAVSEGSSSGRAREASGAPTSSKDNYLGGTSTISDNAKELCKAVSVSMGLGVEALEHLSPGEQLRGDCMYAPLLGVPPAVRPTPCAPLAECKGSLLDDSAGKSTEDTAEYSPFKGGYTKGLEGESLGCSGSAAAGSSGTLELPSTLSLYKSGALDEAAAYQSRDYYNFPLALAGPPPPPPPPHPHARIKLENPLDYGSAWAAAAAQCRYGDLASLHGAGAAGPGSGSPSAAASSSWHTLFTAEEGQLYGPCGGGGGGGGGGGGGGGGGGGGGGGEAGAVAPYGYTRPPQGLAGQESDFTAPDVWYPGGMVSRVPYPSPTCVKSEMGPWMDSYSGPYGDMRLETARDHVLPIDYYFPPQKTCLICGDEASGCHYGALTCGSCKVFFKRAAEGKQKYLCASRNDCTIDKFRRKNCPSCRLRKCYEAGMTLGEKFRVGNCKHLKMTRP
Assay type: cell-based

Row | SMILES | DC50
1 | CN1CCN(c2nccc(COc3ccc(C(C)(C)c4ccc(OCCCNc5cccc6c5C(=O)N(C5CCC(=O)NC5=O)C6=O)cc4)cc3)n2)CC1 (stereo not drawn) [Example 60] | 0.101 to 1 µM
2 | Cc1nc(-c2cnc(Oc3ccc(C(C)(C)c4ccc(O[C@H]5C[C@@H](Nc6ccc7c(c6)C(=O)N(C6CCC(=O)NC6=O)C7=O)C5)cc4)cc3)nc2)no1 (stereo partly drawn) [Example 336] | 0.011 to 0.1 µM
3 | Cc1noc(C)c1-c1nccc(COc2ccc(C(C)(C)c3ccc(O[C@H]4C[C@H](Nc5ccc6c(c5)C(=O)N(C5CCC(=O)NC5=O)C6=O)C4)cc3)cc2)n1 (stereo partly drawn) [Example 271] | 0.011 to 0.1 µM
4 | Cc1nc(-c2cc(Oc3ccc(C(C)(C)c4ccc(O[C@H]5C[C@@H](Nc6ccc7c(c6)C(=O)N(C6CCC(=O)NC6=O)C7=O)C5)cc4)cc3)ccn2)no1 (stereo partly drawn) [Example 174, 2-(2,6-dioxopyridin-3-yl)-5-(((1s,3s)-3-(4-(2-(4-((2-(5-methyl-1,2,4-oxadiazol-3-yl)pyridin-4-yl)oxy)phenyl)propan-2-yl)phenoxy)cyclobutyl)amino) isoindolin-1,3-dione] | 0.011 to 0.1 µM
5 | CC(C)(c1ccc(Oc2cnc(C(=O)O)nc2)cc1)c1ccc(O[C@H]2C[C@H](Nc3ccc4c(c3)C(=O)N(C3CCC(=O)NC3=O)C4=O)C2)cc1 (stereo partly drawn) [Example 267, 5-(4-(2-(4-((1r,3r)-3-((2-(2,6-dioxopiperidin-3-yl)-1,3-dioxoisoindolin-5-yl)amino)cyclobutyloxy)phenyl)propan-2-yl)phenoxy)pyrimidin-2-carboxylic acid] | 0.101 to 1 µM
6 | CC(C)(c1ccc(OCc2ccnc(NS(C)(=O)=O)n2)cc1)c1ccc(OCC2CN(c3cccc4c3C(=O)N(C3CCC(=O)NC3=O)C4=O)C2)cc1 (stereo not drawn) [Example 49, N-(4-((4-(2-(4-((1-(2-(2,6-dioxopiperidin-3-yl)-1,3-dioxoisoindolin-4-yl)azetidin-3-yl)methoxy)phenyl)propan-2-yl)phenoxy)methyl)pyrimidin-2-yl)methanesulfonamide] | 1 to 5 µM
7 | CC(C)(c1ccc(OCc2ccnc(N3CC4(COC4)C3)n2)cc1)c1ccc(O[C@H]2CCC[C@H]2Nc2ccc3c(c2)C(=O)N(C2CCC(=O)NC2=O)C3=O)cc1 (stereo partly drawn) [Example 315] | 1 to 5 µM
8 | CC(C)(c1ccc(OCc2ccnc(-c3ncno3)n2)cc1)c1ccc(O[C@H]2C[C@@H](Nc3ccc4c(c3)C(=O)N(C3CCC(=O)NC3=O)C4=O)C2)cc1 (stereo partly drawn) [Example 252] | 1 to 5 µM
9 | CN1CCC2(CCN(c3nccc(COc4ccc(C(C)(C)c5ccc(OC6CC(Nc7ccc8c(c7)C(=O)N(C7CCC(=O)NC7=O)C8=O)C6)cc5)cc4)n3)C2)C1 (stereo not drawn) [Example 79, 2-(2,6-dioxopiperidin-3-yl)-5-((3-(4-(2-(4-((2-(7-methyl-2,7-diazaspiro[4.4]nonan-2-yl)pyrimidin-4-yl)methoxy)phenyl)propan-2-yl)phenoxy)cyclobutyl)amino)isoindolin-1,3-dione] | 0.011 to 0.1 µM
10 | Cc1noc(-c2nccc(COc3ccc(C(C)(C)c4ccc(O[C@H]5C[C@H](Nc6ccc7c(c6)C(=O)N(C6CCC(=O)NC6=O)C7=O)C5)cc4)cc3)n2)n1 (stereo partly drawn) [Example 250] | 0.011 to 0.1 µM
11 | CC(=O)c1ncc(Oc2ccc(C(C)(C)c3ccc(OC[C@@H]4CCN4c4ccc5c(c4)C(=O)N(C4CCC(=O)NC4=O)C5=O)cc3)cc2)cn1 (stereo partly drawn) [Example 341, 5-((S)-2-((4-(2-(4-((2-acetylpyrimidin-5-yl)oxy)phenyl)propan-2-yl)phenoxy)methyl)azetidin-1-yl)-2-(2,6-dioxopiperidin-3-yl)isoindolin-1,3-dione] | 0.011 to 0.1 µM
12 | Cc1nc(-c2ncc(Oc3ccc(C(C)(C)c4ccc(OC[C@@H]5CCN5c5ccc6c(c5)C(=O)N(C5CCC(=O)NC5=O)C6=O)cc4)cc3)cn2)no1 (stereo partly drawn) [Example 326, 2-(2,6-dioxopiperidin-3-yl)-5-((S)-2-((4-(2-(4-((2-(5-methyl-1,2,4-oxadiazol-3-yl)pyrimidin-5-yl)oxy)phenyl)propan-2-yl)phenoxy)methyl)azetidin-1-yl)isoindolin-1,3-dione] | 0.011 to 0.1 µM
13 | CC(C)(c1ccc(Oc2cc(-n3nccn3)ccn2)cc1)c1ccc(O[C@H]2C[C@H](Nc3ccc4c(c3)C(=O)N(C3CCC(=O)NC3=O)C4=O)C2)cc1 (stereo partly drawn) [Example 165, 5-(((1r,3r)-3-(4-(2-((4-(2H-1,2,3-triazol-2-yl)pyridin-2-yl)oxy)phenyl)propan-2-ylphenoxy)cyclobutyl)amino)-2-(2,6-dioxopyridin-3-yl)isoindol-1,3-dione] | 0.011 to 0.1 µM
14 | CC(C)(c1ccc(Oc2ccc(-n3nccn3)cc2)cc1)c1ccc(O[C@H]2C[C@H](Nc3ccc4c(c3)C(=O)N(C3CCC(=O)NC3=O)C4=O)C2)cc1 (stereo partly drawn) [Example 334] | 0.011 to 0.1 µM

Now from value to molecule:

Row | DC50 | SMILES
15 | 0.011 to 0.1 µM | CC(C)(c1ccc(OCc2ccnc(N3CC4(COC4)C3)n2)cc1)c1ccc(OCC2(Nc3ccc4c(c3)C(=O)N(C3CCC(=O)NC3=O)C4=O)CCC2)cc1 (stereo not drawn) [Example 498, 5-((1-((4-(2-(4-((2-(2-oxa-6-azaspiro[3.3]heptan-6-yl)pyrimidin-4-yl)methoxy)phenyl)propan-2-yl)phenoxy)methyl)cyclobutyl)amino)-2-(2,6-dioxopiperidin-3-yl)isoindolin-1,3-dione]
16 | 1 to 5 µM | CC(c1ccc(C(C)(C)c2ccc(OCc3ccnc(N4CC5(COC5)C4)n3)cc2)cc1)N1CC(Nc2ccc3c(c2)C(=O)N(C2CCC(=O)NC2=O)C3=O)C1 (stereo not drawn) [Example 505, 5-((1-(1-(4-(2-(4-(4-) 4-((2-(2-oxa-6-azaspiro[3.3]heptane-6-yl)pyrimidin-4-yl)methoxy)phenyl)propan-2-yl)phenyl)ethyl)azetidin-3-yl)amino)-2-(2,6-dioxopiperidin-3-yl)isoindolin-1,3-dione]
17 | 1 to 5 µM | CC(=O)c1nccc(COc2ccc(C(C)(C)c3ccc(OC4CC5(CCN(c6ccc7c(c6)C(=O)N(C6CCC(=O)NC6=O)C7=O)C5)C4)cc3)cc2)n1 (stereo not drawn) [Example 562]
18 | 0.011 to 0.1 µM | Cc1nc(-c2ccc(Oc3ccc(C(C)(C)c4ccc(O[C@H]5C[C@@H](Nc6ccc7c(c6)C(=O)N(C6CCC(=O)NC6=O)C7=O)C5)cc4)cc3)cn2)no1 (stereo partly drawn) [Example 597, 2-(2,6-dioxopiperidin-3-yl)-5-(((1s,3s)-3-(4-(2-(4-((6-(5-methyl-1,2,4-oxadiazol-3-yl)pyridin-3-yl)oxy)phenyl)propan-2-yl)phenoxy)cyclobutyl)amino)isoindolin-1,3-dione]
19 | 0.011 to 0.1 µM | COc1cnc(Oc2ccc(C(C)(C)c3ccc(O[C@H]4C[C@H](Nc5ccc6c(c5)C(=O)N(C5CCC(=O)NC5=O)C6=O)C4)cc3)cc2)cn1 (stereo partly drawn) [Example 552, 2-(2,6-dioxopiperidin-3-yl)-5-(((1r,3r)-3-(4-(4-((5-methoxypyrazin-2-yl)oxy)phenyl)propan-2-yl)phenoxy)amino)isoindolin-1,3-dione]
20 | 0.011 to 0.1 µM | CCN1CC(Oc2ncnc(Oc3ccc(C(C)(C)c4ccc(O[C@H]5C[C@@H](Nc6ccc7c(c6)C(=O)N(C6CCC(=O)NC6=O)C7=O)C5)cc4)cc3)c2F)C1 (stereo partly drawn) [Example 576]
21 | 0.011 to 0.1 µM | CN1CC(Oc2nccc(COc3ccc(C(C)(C)c4ccc(O[C@H]5C[C@@H](Nc6ccc7c(c6)C(=O)N(C6CCC(=O)NC6=O)C7=O)C5)cc4)cc3)n2)C1 (stereo partly drawn) [Example 407]
22 | 0.011 to 0.1 µM | Cc1nc(-c2cnc(Oc3ccc(C(C)(C)c4ccc(O[C@H]5C[C@H](Nc6ccc7c(c6)C(=O)N(C6CCC(=O)NC6=O)C7=O)C5)cc4)cc3)cn2)no1 (stereo partly drawn) [Example 586]
23 | 1 to 5 µM | CC(C)(c1ccc(OCc2ccnc(N3CC4(COC4)C3)n2)cc1)c1ccc(OC2CCCCC2Nc2ccc3c(c2)C(=O)N(C2CCC(=O)NC2=O)C3=O)cc1 (stereo not drawn) [Example 569, 5-((2-(4-(2-(4-((2-(2-oxa-6-azaspiro[3.3]heptan-6-yl)pyrimidin-4-yl)methoxy)phenyl)propan-2-yl)phenoxy)cyclohexyl)amino)-2-(2,6-dioxopiperidin-3-yl)isoindolin-1,3-dione]

Same assay, conditions: AR-v7 degradation in 22RV1 cells, 48 h, numeric values

Row | DC50 | SMILES
24 | > 10 µM | CC(=O)c1cccc(COc2ccc(C(C)(C)c3ccc(OCCCCCCCCOCCCCNc4ccc5c(c4)C(=O)N(C4CCC(=O)NC4=O)C5=O)cc3)cc2)n1 (stereo not drawn) [Example 349, 5-((4-((8-(4-(2-(4-((6-acetylpyridin-2-yl)methoxy)phenyl)isopropan-2-yl)phenoxy)octyl)oxy)tert-butyl)amino)-2-(2,6-dioxopiperidin-3-yl)isoindolin-1,3-dione]
25 | > 10 µM | CC(C)(c1ccc(OCc2ccnc(NS(C)(=O)=O)n2)cc1)c1ccc(OC[C@H]2CC[C@H](CN3CCC(CN4CCN(c5ccc6c(c5)C(=O)N(C5CCC(=O)NC5=O)C6=O)CC4)CC3)CC2)cc1 (stereo partly drawn) [Example 43]
26 | 6.86 µM | CC(C)(c1ccc(OCCCOCCCOCCCNc2cccc3c2C(=O)N(C2CCC(=O)NC2=O)C3=O)cc1)c1ccc(OCc2ccnc(NS(C)(=O)=O)n2)cc1 (stereo not drawn) [Example 19, N-(4-((4-(2-(4-(3-(3-(3-((2-(2,6-dioxopiperidin-3-yl)-1,3-dioxoisoindolin-4-yl)amino)propoxy)propoxy)propoxy)phenyl)propan-2-yl)phenoxy)methyl)pyrimidin-2-yl)methanesulfonamide]

Row | SMILES | DC50
27 | CC(C)(c1ccc(OCCCCCCOCCCCN2CCN(c3ccc4c(c3)C(=O)N(C3CCC(=O)NC3=O)C4=O)CC2)cc1)c1ccc(OCc2ccnc(NS(C)(=O)=O)n2)cc1 (stereo not drawn) [Example 8, N-(4-((4-(2-(4-((6-(4-(4-(2-(2,6-dioxopiperidin-3-yl)-1,3-dioxoisoindolin-5-yl)piperazin-1-yl)butoxy)hexyl)oxy)phenyl)propan-2-yl)phenoxy)methyl)pyrimidin-2-yl)methanesulfonamide] | 5.27 µM
